Experiments:
[1] = Cytotoxicity to HepG2.2.15 cells, MTT method; format: cell-based; details: human, HepG2.2.15 cells (HBV-transgenic human hepatoma cell line), day 8, 50% death concentration
Description: (§1) Hepatitis B virus (HBV) transgenic human hepatoma carcinoma cell, HepG2.2.15 cell line, can secrete hepatitis B virus particles (containing antigen and DNA) into the supernatant when being incubated.
(§2) Under the influence of antiviral drugs, the contents of HBsAg, HBeAg and viral DNA secreted from cells into the supernatant were detected. Compared with the contents of control groups without drugs, the antiviral activity of the sample drugs can be observed. Meanwhile, the cytotoxic effect of the sample drugs can be detected. The value concentration of the sample drugs which caused 50% of the cells dead measured with MTT method was CC50. And the value concentration of the sample drugs which inhibited 50% of the secretion of HBsAg and HBeAg detected by specific ELISA kits and inhibited 50% of the viral DNA replication detected by fluorescent quantitation PCR method was IC50.
(§3) HepG2.2.15 cells were inoculated into a 96-well plate, and the sample drugs were added next day. The medium and the sample drugs with the same concentration were renewed periodically, and the supernatants were collected on the eighth day to be detected. MTT was added to the cells in the 96-well plate, and MTT dissolving solution was added after 4 hours and reacted overnight. OD570 was measured on ELISA the next day. The cytotoxicity of the sample drugs to HepG2.2.15 cells, the effect of the sample drugs on the growth of the cells, and the concentration of the sample drugs (CC50) resulting in 50% of the cells dead were estimated according to the OD values.

[2] = test system: Hepatitis B virus (HBV) DNA; assay: HBV-DNA replication in HepG2.2.15 supernatant, fluorescent quantification PCR; format: cell-based; details: for IC50: Hepatitis B virus, 192 h, HepG2.2.15 supernatant, day 8, PCR, NA means no obvious biological activity or unable to be calculated
Description: as §1, §2, §3
A suitable amount of supernatant was added to the same volume of virus extract solution, and was boiled after mixed homogenously, then centrifuged at 10000 rpm under room temperature for 5 minutes, and a suitable amount of supernatant was collected for PCR amplification. Meanwhile five HBV-DNA standard samples were set to establish a standard curve. According to the obtained viral DNA replication value, the inhibition ratios of HBV-DNA replication of each sample drug at different concentrations were calculated, and then the half inhibition rates of the sample drugs were calculated to obtain IC50. For those samples that can not be calculated for IC50 values, they can be represented by ICx and list the corresponding concentration values.

[3] = test system: Duck hepatitis B virus (DHBV); assay: Anti hepatitis B virus activity on animal: DHBV-DNA level in serum of infected ducks, dot blot hybridization; format: in vivo, Beijing duck; details: 50 mg/kg oral (intragastric) twice per day for 10 days; T5, T10, P3
Description: The solutions of the sample drugs having required concentration (100 mg/mL) were prepared by using 0.3% sodium carboxymethyl cellulose. Batch number: 00701010
Strong positive serum of Duck hepatitis B virus DNA (DHBV-DNA), collected from Shanghai brown-duck, was store at −70[…].
1-day-old Beijing duck, purchased from Beijing QianJin breeding duck farm.
1-day-old Beijing duck was injected DHBV-DNA positive serum of Shanghai brown-duck via vena cruralis with 0.2 ml/each duck. Blood was taken on the seventh day after infected; serum was separated and stored at −70[…] to be detected.
DHBV infected ducklings were randomly grouped (six ducklings/each group) to carry out drug treatment experiment after 7 days. The administration groups (W28D, W28F, W28M, C37) were set 1 dose group—50 mg/kg respectively, and oral (intragastric) administered twice per day for 10 days (Bid×10). The drugs were replaced with normal saline in virus control group (DHBV). […] Blood was taken from the vena cruralis of the duck after 7 days later of infection, i.e. before drug administration (T0), the fifth day (T5) and the tenth day after drug administration (T10), and the third day after drug withdrawal (P3), then serum was separated and stored at −70[…] to be detected.
The above duck serum was taken and dotted on the membrane to measure the dynamic level of DHBV-DNA in the duck serum. According to the instruction of nick translation kit, dot blot hybridization of duck serum and was carried out using ^32 P labeled DHBV-DNA probe (purchased from Promega Co.). And the dots were shown on the membrane by radioautography. The OD values (the filter was 490 nm) of the dots on the membrane were measured by ELISA. DHBV-DNA density of the serum was calculated and the OD values of the hybridized dot were used as the values of DHBV-DNA level.
a) The mean values (X±SD) of DHBV-DNA OD values of serum at different time of the ducks in each group were calculated, and the DNA levels of serum at different time after drug administration (T5, T10) and the third day after drug withdrawal (P3) for the ducks in each group and were compared with the OD values before administration (T0) of the same group. The values of t1 and P1 were calculated by paired-t test. The significance of the difference was analyzed, and the inhibitory effect of the drugs on the viral infection was estimated.
b). The inhibition ratio (%) to DHBV-DNA of serum at different time after administration (T5, T10) and the third day after drug withdrawal (P3) of the ducks in each group were calculated and illuminated in the figure, and the dynamic state of the inhibition ratios of DHBV-DNA in duck serum in each group were compared.
c) The inhibitions % of DHBV-DNA at different time of the administration group were compared with that at the same time of the virus control group. […] The significance of the difference was analyzed, and the drug action was estimated.

Row | SMILES | CC50 at 8 day [1] | IC50 [2] | other results
1 | COc1ccc(-c2nc(C(=O)OC(C)C)c(CC(C)C)s2)cc1 [C37] | > 33 µM | 0.03 µM | inhibitory effect to DHBV-DNA in duck serum, group analysis (versus virus control group) [3]: at each time point did not show inhibitory effect to DHBV-DNA; inhibitory effect to DHBV-DNA in duck serum, paired analysis (versus T0 of same group) [3]: at each time point did not show inhibitory effect to DHBV-DNA
2 | CC(C)Cc1sc(-c2nccs2)nc1CO [C254] | > 33.3 µM | > 33.3 µM | 
3 | CC(=O)c1nc(-c2nccs2)sc1CC(C)C [C266] | > 33.3 µM | 0.06 µM | 
4 | CC(C)Cc1sc(-c2nccs2)nc1C(N)=O [C267] | > 100 µM |  | DNA replication ICX: IC89 ([2]; concentration at 89% inhibition, IC50 not calculable): IC89 = 33 μM
5 | CC(C)Cc1sc(-c2nccs2)nc1C(C)O (stereo not shown) [C268-2] | > 33.3 µM | 0.6 µM | 
6 | CCOC(=O)c1nc(-c2ccccn2)oc1CC(C)C [C274] | > 100 µM | 67.6 µM | 
7 | CCC(=O)c1nc(-c2nccs2)sc1CC(C)C [C280-4] | > 33.3 µM | 0.09 µM | 
8 | CNC(=O)c1nc(-c2nccs2)sc1CC(C)C [C281] | > 100 µM |  | DNA replication ICX: IC94 ([2]; concentration at 94% inhibition, IC50 not calculable): IC94 = 33 μM
9 | CCC(O)c1nc(-c2nccs2)sc1CC(C)C (stereo not shown) [C282-2] | > 33.3 µM | 0.8 µM | 
10 | CCOC(=O)c1nc(-c2cccnc2)sc1CC(C)C [C290-2] | > 100 µM |  | 
11 | CCOC(=O)c1nc(-c2ccncc2)sc1CC(C)C [C290-3] | > 100 µM |  | 
12 | CCOC(=O)c1nc(-c2ccccn2)sc1CC(C)C [C290] | > 100 µM | 0.14 µM | 
13 | CC(C)Cc1sc(-c2nccs2)nc1C(=O)N(C)C [C295-3] | > 100 µM |  | DNA replication ICX: IC12 ([2]; concentration at 12% inhibition, IC50 not calculable): IC12 = 1.23 μM
14 | CCOC(=O)c1nc(-c2ccc(C)cc2)sc1CC(C)C [C303-1] | > 33.3 µM | 2.9 µM | 
15 | CCOC(=O)c1nc(-c2cccc(C)c2)sc1CC(C)C [C303-2] | > 33.3 µM | > 33.3 µM | 
16 | CCOC(=O)c1nc(-c2ccccc2C)sc1CC(C)C [C303-3] | > 33.3 µM | 1.48 µM | 
17 | CCOC(=O)c1nc(-c2ccc(O)cc2)sc1CC(C)C [C305-4] | > 33.3 µM |  | 
18 | CCOC(=O)c1nc(-c2cccc(O)n2)sc1CC(C)C [C306-2] | > 100 µM | 0.14 µM | 
19 | CCOC(=O)c1nc(-c2ncccc2O)sc1CC(C)C [C306-3] | 5.67 µM | 0.14 µM | 
20 | CCOC(=O)c1nc(-c2ccc(F)cc2)sc1CC(C)C [C307-2] | > 33.3 µM |  | 
21 | CCOC(=O)c1nc(-c2cccc(F)c2)sc1CC(C)C [C307-3] | > 33.3 µM | < 0.05 µM | 
22 | CCOC(=O)c1nc(-c2ccccc2F)sc1CC(C)C [C307-4] | > 33.3 µM | 0.14 µM | 
23 | CC(C)Cc1sc(-c2nccs2)nc1C(=O)OC(C)C [C310-4] | > 100 µM | 0.81 µM | inhibitory effect to DHBV-DNA in duck serum, group analysis (versus virus control group) [3]: T10 showed inhibitory effect to DHBV-DNA with statistical significance; inhibitory effect to DHBV-DNA in duck serum, paired analysis (versus T0 of same group) [3]: T10 showed inhibitory effect to DHBV-DNA with statistical significance

Reference: US8653115B2, “Heterocyclic non-nucleoside compounds, their preparation, pharmaceutical composition and their use as antiviral agents” (Shanghai Institute of Materia Medica, Chinese Academy of …, priority 2006, dated 2014)
